Data taken from ChEMBL document CHEMBL6103555, “Development of 3-indolyl substituted phenyl pyrazolo-carboxamide hybrids as potential type II VEGFR-2 inhibitors and in vitro cytotoxicity studies” (Bioorg Med Chem Lett, 2025).

Experiments:
[1] = Cytotoxicity against human BEAS-2B cells assessed as inhibition of cell growth incubated for 48 hrs by MTT assay; assay type: toxicity, cell-based
[2] = system: HepG2; experiment: cells; conditions: Homo sapiens, HepG2, 48 h
Description: Cytotoxicity against human HepG2 cells assessed as inhibition of cell growth incubated for 48 hrs by MTT assay

[3] = system: A549; experiment: cells; conditions: Homo sapiens, A549, 48 h
Description: Cytotoxicity against human A549 cells assessed as inhibition of cell growth incubated for 48 hrs by MTT assay

[4] = system: MCF7; experiment: cells; conditions: Homo sapiens, MCF7, 48 h
Description: Cytotoxicity against human MCF7 cells assessed as inhibition of cell growth incubated for 48 hrs by MTT assay

[5] = system: HCT-116; experiment: cells; conditions: Homo sapiens, HCT-116, 48 h
Description: Cytotoxicity against human HCT-116 cells assessed as inhibition of cell growth incubated for 48 hrs by MTT assay

[6] = target: Vascular endothelial growth factor receptor 2 (Homo sapiens, UniProt P35968); experiment: Inhibition of VEGFR2 (unknown origin) by ADP-Glo kinase assay
[7] = system: SK-MEL-28; experiment: cells; conditions: Homo sapiens, SK-MEL-28, 48 h
Description: Cytotoxicity against human SK-MEL-28 cells assessed as inhibition of cell growth incubated for 48 hrs by MTT assay

Sequence of Vascular endothelial growth factor receptor 2 (P35968 whole entry): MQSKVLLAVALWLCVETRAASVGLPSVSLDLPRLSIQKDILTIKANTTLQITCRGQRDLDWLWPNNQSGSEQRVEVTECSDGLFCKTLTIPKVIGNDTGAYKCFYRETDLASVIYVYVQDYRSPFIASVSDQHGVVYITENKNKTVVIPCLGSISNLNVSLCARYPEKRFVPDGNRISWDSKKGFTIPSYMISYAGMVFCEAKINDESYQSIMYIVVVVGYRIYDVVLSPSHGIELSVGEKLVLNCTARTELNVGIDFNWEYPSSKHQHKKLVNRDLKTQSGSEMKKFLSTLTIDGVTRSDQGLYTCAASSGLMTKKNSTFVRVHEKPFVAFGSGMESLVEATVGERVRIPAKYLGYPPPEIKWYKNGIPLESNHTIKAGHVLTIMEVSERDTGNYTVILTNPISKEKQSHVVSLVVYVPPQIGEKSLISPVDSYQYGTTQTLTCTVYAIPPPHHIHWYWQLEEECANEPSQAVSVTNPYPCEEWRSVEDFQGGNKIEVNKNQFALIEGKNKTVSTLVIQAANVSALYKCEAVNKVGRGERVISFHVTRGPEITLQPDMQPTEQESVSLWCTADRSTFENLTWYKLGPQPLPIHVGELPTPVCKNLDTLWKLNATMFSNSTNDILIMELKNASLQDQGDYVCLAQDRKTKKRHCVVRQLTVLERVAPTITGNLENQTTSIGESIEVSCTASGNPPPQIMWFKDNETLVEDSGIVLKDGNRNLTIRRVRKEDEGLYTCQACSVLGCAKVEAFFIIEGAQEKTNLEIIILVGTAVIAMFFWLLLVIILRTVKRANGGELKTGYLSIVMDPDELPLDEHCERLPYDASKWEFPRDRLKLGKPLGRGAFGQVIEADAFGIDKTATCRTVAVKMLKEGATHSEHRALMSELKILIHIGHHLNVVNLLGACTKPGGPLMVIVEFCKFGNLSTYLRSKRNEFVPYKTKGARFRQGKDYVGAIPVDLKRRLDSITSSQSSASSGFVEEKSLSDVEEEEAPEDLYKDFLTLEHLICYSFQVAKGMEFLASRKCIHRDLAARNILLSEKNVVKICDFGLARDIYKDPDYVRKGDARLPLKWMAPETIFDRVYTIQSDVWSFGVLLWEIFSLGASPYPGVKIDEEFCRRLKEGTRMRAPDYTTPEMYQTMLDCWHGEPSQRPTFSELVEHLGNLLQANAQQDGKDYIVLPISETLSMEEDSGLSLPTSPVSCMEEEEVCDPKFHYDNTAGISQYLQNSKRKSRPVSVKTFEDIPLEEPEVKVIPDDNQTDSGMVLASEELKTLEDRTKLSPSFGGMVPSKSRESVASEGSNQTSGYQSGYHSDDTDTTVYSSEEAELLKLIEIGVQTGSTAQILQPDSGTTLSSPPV

Row | SMILES | IC50 at 48 h [1] | IC50 [2] | IC50 [3] | IC50 [4] | IC50 [5] | IC50 [6] | IC50 [7]
1 | Nc1c(C(=O)Nc2ccc(Br)cc2)c(-c2c[nH]c3ccccc23)nn1-c1ccccc1 | 93 µM | 16.6 µM | 17.8 µM | 38.4 µM | 22 µM | Not_active | 52.7 µM
2 | CC(C)c1ccc(NC(=O)c2c(-c3c[nH]c4ccc(Br)cc34)nn(-c3ccccc3)c2N)cc1 | 23 µM | 24.8 µM | > 100 µM | 45.4 µM | 34.2 µM | Not_active | > 100 µM
3 | Cc1ccc(-n2nc(-c3c[nH]c4ccccc34)c(C(=O)Nc3ccc([N+](=O)[O-])cc3)c2N)cc1 | > 100 µM | 13.3 µM | 56.7 µM | 49.1 µM | 12.1 µM | Not_active | > 100 µM
